# Source: patent US7030257B2, “Metallocenes and processes for their preparation” (Agency for Science, Technology and Research, priority 2004, dated 2006)
# System: double-stranded DNA
# Test: Competition experiment against ethidium bromide (EB) for binding to EB-saturated double-stranded DNA, gel electrophoresis fluorescence readout
# Excerpt: A competition experiment was designed to obtain an estimate of the nucleic acid intercalating property of the compound of the invention. The basis of this methodology involves the use of two intercalators, one fluorescent and one non-fluorescent. The fluorescent intercalator first saturates the double-stranded DNA. Then a second intercalator, in this case VFcTMEDA, is introduced into the system with gradual increasing concentration. […] For the competition experiment, the changes in fluorescent intensity were monitored during the displacement of DNA-bound fluorescent molecules by VFcTMEDA through an increasing concentration of the VFcTMEDA molecules in the system. A well-known threading intercalator, ethidium bromide (EB), was chosen as our fluorescent indicator.
# Subsequently, VFcTMEDA was studied with respect to its ability to compete against EB for binding to DNA using the same approach. Different amounts of VFcTMEDA were mixed with the EB saturated double-stranded DNA to examine the bind ability. […] Lanes 1 to 5 correspond to different ratios of VFcTMEDA/EB.
substance,measurement,setting,value
vinylferrocene tetramethylethylenediamine [VFcTMEDA],enhancement of binding constant over EB,Kd of VFcTMEDA relative to EB,~26 fold
same,DNA-bound EB replaced,VFcTMEDA/EB molecular ratio 1/5 (second lane),more than 50%
